Laboratory results as given in publication PMC11500593, “Molecular cloning and biochemical characterization of indole-3-acetic acid methyltransferase from Japanese star anise (Illicium anisatum)” (Plant Biotechnology, 2024).

Tested on: T1, IaIAMT
T1 construct: full-length cDNA from leaf RNA, N-terminal MBP fusion (pCold-MBP), E. coli BL21(DE3), purified on gelatinized corn starch; MBP cleavage not mentioned
Experiment: radiochemical methyltransferase assay, […]-SAM, ethyl acetate extraction, scintillation counting
Format: biochemical, Illicium anisatum
Details: co-substrate [Me-14C]-SAM; sodium phosphate pH 7.0; 25°C; 10 min; IAA 0–400 µM; MBP fusion; read-out: apparent Km

Km: 122 ± 32.9 µM
SMILES: O=C(O)Cc1c[nH]c2ccccc12 [IAA, indole-3-acetic acid]
